From the METLIN SMRT retention time set (Domingo-Almenara et al. 2019)

Assay: gradient 5% acetonitrile 3 min, to 50% in 2 min, to 85% in 15 min, held 3 min, 100 µL/min
Details: column: Zorbax Extend-C18 2.1 x 50 mm; eluents: water / acetonitrile, 0.1% formic acid
Summary of the method: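 Retention times come from adduct peaks that were picked computationally and then checked by hand. The standards, pure and pooled in mixtures of ~100 molecules, were run on a Zorbax Extend-C18 column (2.1 × 50 mm, 1.8 μm) at 100 μL/min with water and acetonitrile, each with 0.1% formic acid. Detection was by quadrupole time-of-flight mass spectrometry in positive and negative ionization mode, with a dead volume of 40 μL and a dwell volume of 900 μL.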

Row | Structure (SMILES) | RP-LC retention time [s]
1 | O=C(Nc1ccc2c(c1)CCC2)Nc1cccn2ncnc12 | 891
2 | O=C(Nc1cccc(OCc2nnc(-c3ccc(Cl)cc3)o2)c1)c1ccoc1 | 970
3 | O=C(Nc1cccc2ccccc12)c1ccc(F)cc1 | 812
4 | CCOC(=O)c1ccc(Nc2c(-c3ccccc3)nc3cnccn23)cc1 | 849
5 | C(=C/c1nc2ccccc2o1)/c1ccc2c(c1)OCO2 | 1010
6 | O=C(CCCN1C(=O)c2cccc3cccc(c23)C1=O)N1CCN(c2ncccn2)CC1 | 723
7 | CC1CC(=O)N(CC(=O)Nc2ccc(Cl)cc2)c2ccccc2S1(=O)=O (centres undefined) | 843
8 | CCOc1ccc(-c2nc(Cc3noc(-c4cccnc4)n3)c(C)o2)cc1 | 967
9 | O=C1CC(/C=C/c2ccccc2)Cc2nc(N3CCN(c4ccccn4)CC3)ncc21 (centres undefined) | 754
10 | O=C(Nc1ccccc1Cl)N1CCN(c2cnn3cnnc3c2)CC1 | 625
11 | NS(=O)(=O)c1ccc(NS(=O)(=O)c2ccc3onc(C(=O)N4CCCCC4)c3c2)cc1 | 782
12 | CC(C)(C)c1ccc(S(=O)(=O)NCC(=O)Nc2ccc3c(c2)OCO3)cc1 | 846
13 | O=C(NCCOc1ccccc1)Nc1ccc(OC(F)(F)F)cc1 | 910
14 | COC[C@@H]1CN(C(=O)c2cc(Cl)ccc2F)C[C@H]1C(N)=O | 611
15 | O=C(c1ccc(F)cc1)N1CCC2(CC1)OCC(C(=O)N1CCCC1)N2C(=O)c1cccc(F)c1 (centres undefined) | 715
16 | O=C(Nc1nc(-c2ccncc2)cs1)c1ccc(NS(=O)(=O)c2ccccc2)cc1 | 589

Row | Structure (SMILES) | RP-LC retention time [s]
17 | CCOC(=O)c1ccccc1NC(=O)c1c2c(cn(-c3ccccc3)c1=O)C(=O)CC(C)(C)C2 | 1120
18 | CCCc1nc(-c2c(C)cc(C)nc2NC(=O)c2ccccc2C(F)(F)F)no1 | 951
19 | O=C(Cc1cccc(Cl)c1)N1[C@H]2CC[C@@H]1c1cnc(-c3ccccc3)nc1C2 | 990
20 | Cc1ccc(NC(=O)Nc2ccc3nc(N4CCN(C)CC4)cc(C)c3c2)cc1F | 614
21 | CCCN(CCC)CCCNC(=O)C1=C(C)C(=O)OC12CCN(Cc1ccccc1)CC2 | 558
22 | FC(F)(F)c1ccc(/C=C/c2nc(COc3ccc(CCCCn4ccnn4)cc3)co2)cc1 | 1170
23 | O=C(Nc1ccccc1F)NC1CCN(C(=O)C2CC2)C1 (centres undefined) | 673
24 | Cc1cnc(C2CCC2)n1CCNS(=O)(=O)c1ccccc1 | 615
25 | O=C(CCSc1ccccc1)NCC1CCN(C(=O)COc2ccccc2)CC1 | 757
26 | O=C(Nc1ccc(F)cc1)N1CCC(N2CCN(Cc3cccc(F)c3)C(=O)C2=O)CC1 | 722
27 | Cc1cccc(NS(=O)(=O)c2ccc3nncn3c2)c1 | 673
28 | Cc1cccc(-c2noc(CCn3nc(-c4ccc5c(c4)OCO5)ccc3=O)n2)c1 | 976
29 | CC(=O)N1C[C@@H]2CCCN3CCC[C@@H]([C@H]23)[C@H]1CCCC(=O)NCCN(C)C1CCCCC1 | 538
30 | Cc1oc(-c2[nH]ncc2C(=O)N2CCCC2)cc1S(=O)(=O)Nc1ccc(F)c(F)c1 | 734
31 | O=C(Nc1cccc(Cl)c1)Nc1nc(CC(=O)N2CCc3ccccc32)cs1 | 978
32 | CC(C(=O)NCCc1c[nH]c2ccccc12)n1c2ccccc2c2cnn(C)c(=O)c21 (centres undefined) | 829

The next lines start with the values.

Row | RP-LC retention time [s] | Structure (SMILES)
33 | 894 | COc1cccc(-c2nnc(Cc3nc(-c4ccc(OC)c(OC)c4)no3)o2)c1
34 | 789 | CCOc1ccccc1NC(=O)C1CCN(S(=O)(=O)c2ccc3[nH]c(=O)ccc3c2)CC1
35 | 690 | CC1=C(C(=O)N2CCOCC2)C(c2c(F)cccc2Cl)C2=C(CC(C)(C)CC2=O)N1 (centres undefined)
36 | 1160 | CCOc1ccc(N(C)S(=O)(=O)c2ccsc2C(=O)NCc2cccc(OCC)c2)cc1
37 | 1100 | Cc1ccc(C(=O)Nc2nccnc2C(=O)NC2CCCCC2)cc1
38 | 1230 | Cc1ccc(S(=O)(=O)N2CCCC2c2nc(-c3cccc(F)c3)no2)cc1Cl (centres undefined)
39 | 752 | O=C(NCc1ccc2c(c1)OCO2)C1CCN(C(=O)c2ncn3c2COC(c2ccccc2)C3)CC1 (centres undefined)
40 | 702 | CCc1ccc(Nc2c(C(=O)N3CCCC(C)C3)cnc3nc(C)ccc23)cc1 (centres undefined)
41 | 868 | CCC1Oc2ccc(S(=O)(=O)N3CCC(C(=O)Nc4ccc(C)cc4C)CC3)cc2NC1=O (centres undefined)
42 | 815 | COc1ccc(-c2ncc3c(=O)n(CC(=O)N4CCCC4)c(=O)n(C)c3n2)cc1
43 | 675 | Cc1oc(C2CCN(C(=O)Nc3ccc4c(c3)OCCO4)CC2)nc1C(=O)N(C)C
44 | 642 | COc1ccccc1-n1c(SCC(=O)Nc2ncn[nH]2)nc2ccccc2c1=O
45 | 835 | COc1cccc(CNC(=O)Cn2c(=O)c3cc(-c4cccs4)nn3c3ncccc32)c1
46 | 1060 | Cc1ccc(NC(=O)N2CCCC2c2nc(-c3cccc(C)c3)no2)cc1 (centres undefined)
47 | 935 | CC(C)NC(=O)c1ccc(OCC2CCN(C(=O)c3ccc(C(F)(F)F)cc3)CC2)cc1
48 | 698 | CCOc1ccc(CNC(=O)C2CCN(c3cnc4nccnc4c3)CC2)cc1

Row | RP-LC retention time [s] | Structure (SMILES)
49 | 897 | COc1cc(OC)c(NC(=O)N2CCCC(C)(C(=O)NCc3ccccc3)C2)cc1Cl (centres undefined)
50 | 922 | COCc1c(C(=O)N2CCCC2Cc2noc(C3CCCC3)n2)noc1C (centres undefined)
51 | 645 | COc1ccc(Cl)cc1NC(=O)N1CCC(C(=O)Nc2cc(C)on2)CC1
52 | 686 | CCCCN(C)C(=O)C1CCCN(c2cnc3nccnc3c2)C1 (centres undefined)
53 | 598 | CCNc1cc(N2CCC(CCC(=O)NC(C)C)CC2)ncn1
54 | 732 | COc1ccc(CNC(=O)N2C[C@H](c3nc(-c4ccncc4)no3)[C@@H](C)C2)cc1
55 | 1030 | O=C(NC1CCCCC1)c1nc(-c2cn(-c3ccc(Cl)cc3)nn2)no1
56 | 1000 | Cc1nn(-c2ccccc2)c(C)c1S(=O)(=O)N1CCC(C(=O)Nc2cccc(Cl)c2C)CC1
57 | 1080 | COc1ccc(CNC(=O)c2cc3sccc3n2Cc2ccc(F)cc2)cc1
58 | 737 | CCOc1ccc(CNC(=O)C2CCCN(c3nn4c(=O)c5c(nc4s3)CCCC5)C2)cc1OC (centres undefined)
59 | 797 | Cc1ccccc1NC(=O)Cn1ncc2c(c1=O)N(CC1CC1)C(=O)CS2
60 | 627 | CC(C(=O)N1CCN(c2ccccn2)CC1)n1c2ccccc2c2cnn(C)c(=O)c21 (centres undefined)
61 | 1190 | CCOC(=O)c1noc2nc(C)nc(N3CCN(c4ccc(Cl)cc4)CC3)c12
62 | 640 | Cc1ccc2c(=O)c3c([nH]c2c1C)CCN(CC(=O)Nc1ccccc1Cl)C3
63 | 883 | O=C(Nc1ccc2c(c1)OCO2)c1noc2c1CCCC2
64 | 605 | COc1ccc(CNC(=O)c2cc(-c3ccncc3)cn2C)cc1OC
